From patent US10849880B2, “Pharmaceutical composition” (FUJIFILM Toyama Chemical Co., Ltd., priority 2016, dated 2020)

Key:
[1] = pH of maleate of compound A and additive dissolved or suspended in 10 mmol/L KCl solution; format: physicochemical; conditions: maleate of compound A 1 mg/mL with additive
Description: The pH was measured when the maleate of compound A and the additive were dissolved or suspended in a 10 mmol/L KCl solution in such a way as to reach the respective numerical values shown in Table 2 to Table 6.

[2] = Evaluation of degradation material: stress test at 70° C. for 7 days, HPLC; format: physicochemical; conditions: class of degradation material after 70° C.
Description: The prepared solid pharmaceutical composition was subjected to a stress test that it was stored in a thermostat at 70° C. for 7 days. The storage stability was evaluated in terms of the amount of compound A decomposed by the following method.
The above stored solid pharmaceutical composition was adjusted with water/acetonitrile/pH 3.0 phosphate buffer (450:50:1) such that the maleate of compound A had 333 μg/mL and was filtered through a membrane filter to obtain a filtrate. The degradation material of compound A was quantified by high performance liquid chromatography (HPLC). The amount of the degradation material detected at a relative retention time of 0.94 with respect to compound A was quantified as the degradation material of compound A under the following measurement conditions.
(HPLC Measurement Condition)
Evaluation criteria for the degradation material are as follows:
Evaluation was performed in the same manner as described in Examples 1-19 and Comparative Examples 1-14.

In the case of OC1CN(CCCOCCc2ccc3sccc3c2)C1 [compound 14, 1-(3-(2-(1-benzothiophen-5-yl)ethoxy)propyl)azetidin-3-ol], the pH [1] is reported as 4.5 and the “Evaluation of degradation material” value [2] is reported as “A (Less than 0.25%)”.
